According to article PMC8333425, “Discovery of a dual Ras and ARF6 inhibitor from a GPCR endocytosis screen” (Nature Communications, 2021):

Key:
Experiment in all cases: KINOMEscan kinase binding assay
[1] = target: T1, 384 kinases from the human genome (Homo sapiens, UniProt Q8TD19); conditions: kinase NEK9 (Entrez NEK9)
T1 construct: purchased Eurofin/DiscoverX
Procedure, shortened: (§1)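 A panel of 384 human kinases was profiled by KINOMEscan binding in the presence of 10 µM compound. Kinase–ligand binding was given as percent of DMSO control, averaged from duplicates in a single run, with an S(10) selectivity score.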

[2] = target: T2, 384 kinases from the human genome (Homo sapiens, UniProt Q9NSY1); conditions: kinase BIKE (Entrez BMP2K)
T2 construct: purchased Eurofin/DiscoverX
Procedure, shortened: as §1

[3] = target: T3, 384 kinases from the human genome (Homo sapiens, UniProt Q14289); conditions: kinase PYK2 (Entrez PTK2B)
T3 construct: purchased Eurofin/DiscoverX
Procedure, shortened: as §1

[4] = target: T4, 384 kinases from the human genome (Homo sapiens, UniProt Q9NRM7); conditions: kinase LATS2 (Entrez LATS2)
T4 construct: purchased Eurofin/DiscoverX
Procedure, shortened: as §1

[5] = target: T5, 384 kinases from the human genome (Homo sapiens, UniProt Q86Z02); conditions: kinase HIPK1 (Entrez HIPK1)
T5 construct: purchased Eurofin/DiscoverX
Procedure, shortened: as §1

[6] = target: T6, 384 kinases from the human genome (Homo sapiens, UniProt Q7KZI7); conditions: kinase MARK2 (Entrez MARK2)
T6 construct: purchased Eurofin/DiscoverX
Procedure, shortened: as §1

[7] = target: T7, 384 kinases from the human genome (Homo sapiens, UniProt P53779); conditions: kinase JNK3 (Entrez MAPK10)
T7 construct: purchased Eurofin/DiscoverX
Procedure, shortened: as §1

[8] = target: T8, 384 kinases from the human genome (Homo sapiens, UniProt P37173); conditions: kinase TGFBR2 (Entrez TGFBR2)
T8 construct: purchased Eurofin/DiscoverX
Procedure, shortened: as §1

[9] = target: T9, 384 kinases from the human genome (Homo sapiens, UniProt Q02779); conditions: kinase MLK2 (Entrez MAP3K10)
T9 construct: purchased Eurofin/DiscoverX
Procedure, shortened: as §1

[10] = target: T10, 384 kinases from the human genome (Homo sapiens, UniProt Q13882); conditions: kinase BRK (Entrez PTK6)
T10 construct: purchased Eurofin/DiscoverX
Procedure, shortened: as §1

[11] = target: T11, 384 kinases from the human genome (Homo sapiens, UniProt Q00532); conditions: kinase CDKL1 (Entrez CDKL1)
T11 construct: purchased Eurofin/DiscoverX
Procedure, shortened: as §1

[12] = target: T12, 384 kinases from the human genome (Homo sapiens, UniProt P29322); conditions: kinase EPHA8 (Entrez EPHA8)
T12 construct: purchased Eurofin/DiscoverX
Procedure, shortened: as §1

[13] = target: T13, 384 kinases from the human genome (Homo sapiens, UniProt Q16659); conditions: kinase ERK3 (Entrez MAPK6)
T13 construct: purchased Eurofin/DiscoverX
Procedure, shortened: as §1

[14] = target: T14, 384 kinases from the human genome (Homo sapiens, UniProt P27361); conditions: kinase ERK1 (Entrez MAPK3)
T14 construct: purchased Eurofin/DiscoverX
Procedure, shortened: as §1

[15] = target: T15, 384 kinases from the human genome (Homo sapiens, UniProt O00444); conditions: kinase PLK4 (Entrez PLK4)
T15 construct: purchased Eurofin/DiscoverX
Procedure, shortened: as §1

[16] = target: T16, 384 kinases from the human genome (Homo sapiens, UniProt Q9BVS4); conditions: kinase RIOK2 (Entrez RIOK2)
T16 construct: purchased Eurofin/DiscoverX
Procedure, shortened: as §1

[17] = target: T17, 384 kinases from the human genome (Homo sapiens, UniProt P11802)
T17 construct: purchased Eurofin/DiscoverX
Procedure, shortened: as §1

[18] = target: T18, 384 kinases from the human genome (Homo sapiens, UniProt Q06187); conditions: kinase BTK (Entrez BTK)
T18 construct: purchased Eurofin/DiscoverX
Procedure, shortened: as §1

[19] = target: T19, 384 kinases from the human genome (Homo sapiens, UniProt P04626); conditions: kinase ERBB2 (Entrez ERBB2)
T19 construct: purchased Eurofin/DiscoverX
Procedure, shortened: as §1

[20] = target: T20, 384 kinases from the human genome (Homo sapiens, UniProt O75116); conditions: kinase ROCK2 (Entrez ROCK2)
T20 construct: purchased Eurofin/DiscoverX
Procedure, shortened: as §1

[21] = test system: 384 kinases from the human genome; conditions: 10 µM of 21
Procedure, shortened: as §1

[22] = target: T21, 384 kinases from the human genome (Homo sapiens, UniProt P19525); conditions: kinase PRKR (Entrez EIF2AK2)
T21 construct: purchased Eurofin/DiscoverX
Procedure, shortened: as §1

[23] = target: T22, 384 kinases from the human genome (Homo sapiens, UniProt Q9UPZ9); conditions: kinase ICK (Entrez ICK)
T22 construct: purchased Eurofin/DiscoverX
Procedure, shortened: as §1

[24] = target: T23, 384 kinases from the human genome (Homo sapiens, UniProt Q08345); conditions: kinase DDR1 (Entrez DDR1)
T23 construct: purchased Eurofin/DiscoverX
Procedure, shortened: as §1

[25] = target: T24, 384 kinases from the human genome (Homo sapiens, UniProt Q09013); conditions: kinase DMPK (Entrez DMPK)
T24 construct: purchased Eurofin/DiscoverX
Procedure, shortened: as §1

[26] = target: T25, 384 kinases from the human genome (Homo sapiens, UniProt O95382); conditions: kinase ASK2 (Entrez MAP3K6)
T25 construct: purchased Eurofin/DiscoverX
Procedure, shortened: as §1

T17 sequence (P11802 whole entry): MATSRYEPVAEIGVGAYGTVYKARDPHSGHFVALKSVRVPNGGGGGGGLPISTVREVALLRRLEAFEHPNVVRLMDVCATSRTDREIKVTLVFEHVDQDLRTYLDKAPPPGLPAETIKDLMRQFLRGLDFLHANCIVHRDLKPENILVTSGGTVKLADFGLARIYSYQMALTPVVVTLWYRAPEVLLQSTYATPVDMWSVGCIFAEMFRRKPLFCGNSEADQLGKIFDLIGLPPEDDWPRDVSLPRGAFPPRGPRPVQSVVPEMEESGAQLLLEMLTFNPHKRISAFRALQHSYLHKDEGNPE
T13 sequence (Q16659 whole entry): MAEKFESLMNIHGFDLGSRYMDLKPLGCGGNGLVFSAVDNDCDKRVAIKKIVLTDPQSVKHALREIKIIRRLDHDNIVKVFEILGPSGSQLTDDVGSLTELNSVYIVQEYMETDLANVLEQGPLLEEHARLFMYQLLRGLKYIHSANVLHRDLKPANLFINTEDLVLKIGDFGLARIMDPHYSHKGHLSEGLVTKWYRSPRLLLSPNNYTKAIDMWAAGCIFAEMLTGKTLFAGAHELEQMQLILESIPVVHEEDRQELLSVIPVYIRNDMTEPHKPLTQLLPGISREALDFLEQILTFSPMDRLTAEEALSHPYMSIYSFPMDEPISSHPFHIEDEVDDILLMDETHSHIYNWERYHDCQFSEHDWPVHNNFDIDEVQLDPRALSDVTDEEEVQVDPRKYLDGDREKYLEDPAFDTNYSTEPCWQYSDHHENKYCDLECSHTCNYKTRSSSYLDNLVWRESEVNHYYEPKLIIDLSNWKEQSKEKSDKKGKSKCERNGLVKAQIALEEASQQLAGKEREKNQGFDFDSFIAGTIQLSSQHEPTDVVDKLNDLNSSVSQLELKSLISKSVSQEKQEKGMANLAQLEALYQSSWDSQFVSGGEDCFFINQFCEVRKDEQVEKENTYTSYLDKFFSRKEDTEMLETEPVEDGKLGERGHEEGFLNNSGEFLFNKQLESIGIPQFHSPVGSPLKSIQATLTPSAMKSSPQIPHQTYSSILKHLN
T1 sequence (Q8TD19 whole entry): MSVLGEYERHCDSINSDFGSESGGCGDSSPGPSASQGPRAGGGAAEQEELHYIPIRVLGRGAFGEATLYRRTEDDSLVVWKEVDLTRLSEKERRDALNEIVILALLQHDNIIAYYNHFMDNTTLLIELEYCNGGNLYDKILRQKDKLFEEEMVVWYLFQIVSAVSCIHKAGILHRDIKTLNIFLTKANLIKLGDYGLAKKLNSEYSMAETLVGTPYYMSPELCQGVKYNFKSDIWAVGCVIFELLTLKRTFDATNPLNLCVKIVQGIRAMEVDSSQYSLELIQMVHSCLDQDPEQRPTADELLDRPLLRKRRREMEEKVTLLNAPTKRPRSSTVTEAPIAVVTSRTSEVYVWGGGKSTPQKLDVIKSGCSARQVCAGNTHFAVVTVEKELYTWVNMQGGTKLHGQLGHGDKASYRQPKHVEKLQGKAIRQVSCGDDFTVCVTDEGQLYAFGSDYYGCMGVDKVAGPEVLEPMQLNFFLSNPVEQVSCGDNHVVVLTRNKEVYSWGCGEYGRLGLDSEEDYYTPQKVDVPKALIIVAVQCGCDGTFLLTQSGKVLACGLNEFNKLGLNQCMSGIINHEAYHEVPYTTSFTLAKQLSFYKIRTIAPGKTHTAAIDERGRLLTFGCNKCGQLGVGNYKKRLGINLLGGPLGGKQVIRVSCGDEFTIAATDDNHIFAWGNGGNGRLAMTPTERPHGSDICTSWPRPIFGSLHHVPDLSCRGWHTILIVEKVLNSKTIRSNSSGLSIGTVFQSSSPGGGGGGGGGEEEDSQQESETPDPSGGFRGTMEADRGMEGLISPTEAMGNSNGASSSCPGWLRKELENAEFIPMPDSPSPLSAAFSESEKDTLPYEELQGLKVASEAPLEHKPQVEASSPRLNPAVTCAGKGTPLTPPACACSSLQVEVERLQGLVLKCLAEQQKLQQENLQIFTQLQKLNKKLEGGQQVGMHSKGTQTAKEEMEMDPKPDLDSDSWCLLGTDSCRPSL
T9 sequence (Q02779 whole entry): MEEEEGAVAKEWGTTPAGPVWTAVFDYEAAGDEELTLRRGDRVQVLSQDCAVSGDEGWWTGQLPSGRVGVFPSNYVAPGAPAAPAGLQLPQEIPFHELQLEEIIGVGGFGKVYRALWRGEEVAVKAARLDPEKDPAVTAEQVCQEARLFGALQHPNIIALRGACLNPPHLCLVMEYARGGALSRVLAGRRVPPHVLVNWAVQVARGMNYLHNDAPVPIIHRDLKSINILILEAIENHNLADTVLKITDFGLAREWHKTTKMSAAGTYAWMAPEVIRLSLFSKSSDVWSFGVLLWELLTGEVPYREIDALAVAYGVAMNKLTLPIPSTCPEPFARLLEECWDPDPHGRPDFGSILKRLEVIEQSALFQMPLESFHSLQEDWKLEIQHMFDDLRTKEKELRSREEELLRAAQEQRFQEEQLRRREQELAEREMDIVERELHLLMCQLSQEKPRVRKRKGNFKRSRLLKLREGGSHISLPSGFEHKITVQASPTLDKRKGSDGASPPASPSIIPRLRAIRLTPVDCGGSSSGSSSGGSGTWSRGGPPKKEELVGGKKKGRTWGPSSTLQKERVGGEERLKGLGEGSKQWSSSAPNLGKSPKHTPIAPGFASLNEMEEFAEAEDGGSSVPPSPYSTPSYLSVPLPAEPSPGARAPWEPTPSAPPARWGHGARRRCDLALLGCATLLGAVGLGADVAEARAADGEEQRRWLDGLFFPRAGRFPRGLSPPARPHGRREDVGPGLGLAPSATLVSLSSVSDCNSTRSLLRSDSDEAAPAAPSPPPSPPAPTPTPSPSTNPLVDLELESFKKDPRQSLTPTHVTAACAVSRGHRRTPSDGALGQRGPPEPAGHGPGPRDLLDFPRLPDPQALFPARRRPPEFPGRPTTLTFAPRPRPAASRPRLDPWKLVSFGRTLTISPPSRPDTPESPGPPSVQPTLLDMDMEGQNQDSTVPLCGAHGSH
T3 sequence (Q14289 whole entry): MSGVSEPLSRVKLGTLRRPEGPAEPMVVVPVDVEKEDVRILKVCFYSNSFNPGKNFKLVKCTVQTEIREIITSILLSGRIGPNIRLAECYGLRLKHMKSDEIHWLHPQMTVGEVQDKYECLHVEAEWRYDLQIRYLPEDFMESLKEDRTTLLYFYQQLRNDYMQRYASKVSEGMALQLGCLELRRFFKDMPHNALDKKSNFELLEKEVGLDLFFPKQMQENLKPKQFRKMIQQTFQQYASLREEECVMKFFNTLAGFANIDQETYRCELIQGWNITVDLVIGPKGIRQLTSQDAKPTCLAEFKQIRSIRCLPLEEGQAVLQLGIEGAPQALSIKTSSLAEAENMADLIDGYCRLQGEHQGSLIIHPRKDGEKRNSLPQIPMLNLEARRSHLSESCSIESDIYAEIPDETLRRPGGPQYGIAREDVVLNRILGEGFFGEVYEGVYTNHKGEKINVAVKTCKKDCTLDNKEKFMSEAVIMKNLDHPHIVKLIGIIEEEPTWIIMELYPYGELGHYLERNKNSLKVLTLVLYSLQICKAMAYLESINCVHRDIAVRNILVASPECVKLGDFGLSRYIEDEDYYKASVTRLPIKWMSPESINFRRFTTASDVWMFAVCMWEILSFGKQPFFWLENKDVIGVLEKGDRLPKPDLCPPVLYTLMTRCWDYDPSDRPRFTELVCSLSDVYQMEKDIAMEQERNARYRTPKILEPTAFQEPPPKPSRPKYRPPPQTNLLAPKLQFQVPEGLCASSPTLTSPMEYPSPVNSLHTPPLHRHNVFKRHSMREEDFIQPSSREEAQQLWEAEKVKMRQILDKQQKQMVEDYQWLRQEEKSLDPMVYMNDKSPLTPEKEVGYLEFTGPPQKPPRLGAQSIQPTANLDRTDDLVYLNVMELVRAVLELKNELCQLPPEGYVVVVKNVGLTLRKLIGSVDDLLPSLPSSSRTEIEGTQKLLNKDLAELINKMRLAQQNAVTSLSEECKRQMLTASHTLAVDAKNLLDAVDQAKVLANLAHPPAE
T14 sequence (P27361 whole entry): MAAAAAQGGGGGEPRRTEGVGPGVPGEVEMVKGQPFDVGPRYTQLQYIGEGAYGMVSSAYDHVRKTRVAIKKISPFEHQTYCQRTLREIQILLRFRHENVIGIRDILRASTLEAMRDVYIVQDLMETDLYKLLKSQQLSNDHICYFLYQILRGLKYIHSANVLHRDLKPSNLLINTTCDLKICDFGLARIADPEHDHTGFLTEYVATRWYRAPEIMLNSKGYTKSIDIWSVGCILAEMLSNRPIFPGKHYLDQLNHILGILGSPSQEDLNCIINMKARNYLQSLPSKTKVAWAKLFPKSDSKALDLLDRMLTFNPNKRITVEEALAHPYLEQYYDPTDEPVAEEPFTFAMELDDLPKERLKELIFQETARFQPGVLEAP
T8 sequence (P37173 23-567): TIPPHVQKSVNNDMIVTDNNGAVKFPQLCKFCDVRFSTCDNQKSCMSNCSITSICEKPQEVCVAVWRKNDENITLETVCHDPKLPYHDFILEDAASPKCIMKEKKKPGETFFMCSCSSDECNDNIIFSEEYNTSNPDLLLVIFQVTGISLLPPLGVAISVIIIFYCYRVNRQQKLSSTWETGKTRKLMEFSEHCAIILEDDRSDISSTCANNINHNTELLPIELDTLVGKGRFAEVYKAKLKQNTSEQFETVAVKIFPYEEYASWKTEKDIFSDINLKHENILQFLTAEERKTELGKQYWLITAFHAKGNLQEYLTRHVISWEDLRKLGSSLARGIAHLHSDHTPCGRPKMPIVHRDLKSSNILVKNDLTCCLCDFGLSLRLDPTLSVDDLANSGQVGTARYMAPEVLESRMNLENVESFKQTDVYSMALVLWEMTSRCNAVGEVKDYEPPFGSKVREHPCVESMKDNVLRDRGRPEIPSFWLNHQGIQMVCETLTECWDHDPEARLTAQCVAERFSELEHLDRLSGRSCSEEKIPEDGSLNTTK

CC(C)C(=O)N1CCN(c2ccc(NC(=O)c3cc4ccccc4o3)cc2Cl)CC1 [Compound 21]
Percent Control [1]: 100%
Percent Control [2]: 100%
Percent Control [3]: 96%
Percent Control [4]: 98%
Percent Control [5]: 87%
Percent Control [6]: 80%
Percent Control [7]: 75%
Percent Control [8]: 99%
Percent Control [9]: 96%
Percent Control [10]: 88%
Percent Control [11]: 100%
Percent Control [12]: 94%
Percent Control [13]: 90%
Percent Control [14]: 93%
Percent Control [15]: 89%
Percent Control [16]: 100%
Percent Control ([17]; kinase CDK4 (Entrez CDK4)): 97%
Percent Control ([17]; kinase CDK4-cyclinD1 (Entrez CDK4)): 86%
Percent Control ([17]; kinase CDK4-cyclinD3 (Entrez CDK4)): 96%
Percent Control [18]: 94%
Percent Control [19]: 75%
Percent Control [20]: 80%
binding to ERK subtypes [21]: failed to bind
binding to MEK subtypes [21]: failed to bind
binding to PI3K subtypes [21]: failed to bind
binding to different Akt subtypes [21]: failed to bind
Percent Control [22]: 65%
Percent Control [23]: 81%
Percent Control [24]: 90%
Percent Control [25]: 100%
Percent Control [26]: 100%
